{"source": "patent US20090298864A1", "about": "“Methods for Treating Mild Cognitive Impairment” (The Trustees of Columbia University in the City of New York, priority 2005, published 2009)", "key": {"[1]": {"system": "mouse model of Alzheimer's disease", "conditions": "brief treatment of a mouse model of Alzheimer's disease; cited from earlier work"}, "WT mice": {"system": "WT mice", "assay": "Contextual fear learning (freezing) in WT control mice", "type": "in vivo, mouse", "conditions": "rolipram 0.3 mg/kg vs vehicle, freezing measured 24 hours after training, FIG. 1", "description": "(§1) The effect of rolipram on contextual fear learning in APP mice was determined according to the methods set forth in Gong et al., J Clin Invest. 114(11):1624-34 (2004), which are described briefly as follows:\n(§2) Three to five month old single transgenic APP and WT mice were separated into four groups: APP mice treated with vehicle (“APP control group”), APP mice treated with rolipram at 0.3 mg/kg (“APP rolipram group”), WT mice treated with vehicle (“control vehicle group”), and WT mice treated with rolipram at 0.3 mg/kg (“control rolipram group”). 30 minutes after treatment with either vehicle or rolipram, the mice were placed in a conditioning chamber and subjected to a series of electrical shocks to the feet. Animal behavior was evaluated for three types of response to the shocks (flinching, jumping and screaming) and thresholds for various types of responses were determined for each animal\n(§3) Mice were placed in the conditioning chamber for about 2 minutes, then an auditory tone was given for about 30 seconds. During the last two seconds of the tone, the mice were given a foot shock. The mice were left in the conditioning chamber for about 30 seconds, then were returned to their home cages. […]\n(§4) To evaluate contextual fear learning, freezing was measured for 5 consecutive minutes in the conditioning chamber 24 hours after training."}, "APP mice": {"system": "APP mice", "assay": "Contextual fear learning (freezing) in APP mouse model of mild cognitive impairment", "type": "in vivo", "conditions": "single transgenic APP mice, 3-5 months old; rolipram 0.3 mg/kg vs vehicle; freezing measured 24 hours after training; FIG. 1", "description": "as §1, §2, §3, §4"}}, "note": "“Also recorded” adds a separate entry of the source."}
{"smiles": "COc1ccc(C2CNC(=O)C2)cc1OC1CCCC1", "note": "(stereo not drawn) [rolipram]", "values": [{"measurement": "memory (long-term potential and contextual learning)", "setting": "[1]", "value": "improves memory in both long-term potential and contextual learning"}, {"measurement": "freezing responses in the contextual fear conditioning test", "setting": "WT mice", "value": "no significant difference"}, {"measurement": "freezing in the contextual fear conditioning test (contextual fear learning)", "setting": "APP mice", "value": "much higher incidence of freezing; also recorded: improved contextual fear learning"}]}
